Test system: T-type calcium channels
Experiment: T-type calcium channel inhibitory activity (Fluo-4 FLIPR fluorescence and whole cell patch clamp)
Format: cell-based, mammalian
Details: cells natively expressing T-type channels or HEK-293 cells expressing recombinant T-type calcium channels; fluorometric and electrophysiological methods, not distinguished in the table; read-out: Activity (inhibition of T-type calcium channels, IC50)
Description: T-type calcium channel inhibitory activity of some compounds of the invention was evaluated using both fluorometric as well as electrophysiological measurement methodologies, which are known to those skilled in the art. Fluorescence measurement of changes in intracellular calcium due to entry of calcium through T-type calcium channels was assessed using calcium sensitive fluorescent dyes Fluo-4 and Fluo-3. In brief, cells natively expressing T-type channels or HEK-293 cells transiently or stably expressing recombinant mammalian T-type calcium channels grown in 96-well tissue culture plates in DMEM/High glucose, Hyclone, Fetal Bovine Serum (10%), and 2 mM sodium pyruvate 2 mM (and for cells lines recombinantly expressing T-type calcium channels, G418@400 mg/liter) were loaded with 4 μM Fluo-4 made up in Earls Balanced Salt Solution (EBSS). After incubation for 30 minutes at room temperature, cells were washed with low calcium (0.5 mM) EBSS to remove extracellular Fluo-4. Baseline fluorescence was measured in a FLIPR (FLuorescence Image Plate Reader) (Molecular Devices Inc) after applying test compounds at desired concentration for 5-10 minutes. The effect of test compound on calcium entry was assessed by monitoring changes in Fluo-4 fluorescence following an elevation of extracellular calcium concentration from 0.5 mM to 5 mM. […] Native cells natively expressing T-type channels or HEK-293 cells transiently or stably expressing recombinant mammalian T-type calcium channels were grown in DMEM/High glucose, Hyclone, Fetal Bovine Serum (10%), 2 mM sodium pyruvate 2 mM (and for cells lines recombinantly expressing T-type calcium channels, G418@400 mg/liter) on glass coverslips in 35 mm tissue culture dishes. […] Electrical currents were measured using the whole cell configuration of the patch clamp technique (Axopatch 200B, Axon Instruments (Molecular Devices) (see Hamill et al (1981) PFugers Arch, 1981 391:85-100) using 2-2.5 MOhm resistance glass pipettes filled with 135 CsF, 5 CsCl, 5 NaCl, 5 EGTA, 10 HEPES, pH 7.3 with CsOH, Osmolarity ˜288 mOsm. Test compound effects were typically assessed under conditions in which approximately half of the available channels were inactivated either by an 8 second conditioning depolarization from a holding potential of −100 mV to a potential ranging from −70 mV to −60 mV or by continually holding the membrane potential at −70 mV. Test compounds were assessed for their ability to reduce the amplitude of the inward T-type calcium current elicited by a 100 ms step depolarization −20 or −30 mV.

IC50 [nM] | Compound
1 to 1000 | CCOc1cccc(S(=O)(=O)c2cnc(Nc3cc(NCC[C@H]4CCNC4)nc(C)n3)s2)c1 [Example 10, N-[5-(3-ethoxy-benzenesulfonyl)-thiazol-2-yl]-2-methyl-N′-(R)-(pyrrolidin-3-yl-ethyl)-pyrimidine-4,6-diamine]
1 to 1000 | CCOc1cccc(S(=O)(=O)c2cnc(Nc3cc(OC[C@H]4CCCN4)nc(C)n3)s2)c1 [Example 21, N-[5-(3-ethoxy-benzenesulfonyl)-thiazol-2-yl]-[2-methyl-((6R)-1-pyrrolidin-2-yl-methoxy)pyrimidin-4-yl]-amine]
1 to 1000 | CCOc1cccc(S(=O)(=O)c2cnc(Nc3cc(OCCN(C)C)nc(C(F)(F)F)n3)s2)c1 [Example 28, [6-(2-Dimethylamino-ethoxy)-2-trifluormethyl-pyrimidin-4-yl]-[5-(3-Ethoxy-benzenesulfonyl)-thiazol-2-yl]-amine]
1 to 1000 | [5-(3-Ethoxy-benzenesulfonyl)-thiazol-2-yl]-[6-(3-methylamino)propyl)-2-methyl-pyrimidin-4-yl]-amine [Example 35]

— patent US8034954B2, “Calcium channel antagonists” (Icagen, Inc., priority 2005, dated 2011)
